The text below walks through data of ChEMBL document CHEMBL5465560, “Selectivity Literature for EUbOPEN Chemogenomic Library” (2024).

SMILES strings stand for the structures.

For experiment [1], the target named is Death-associated protein kinase 2 (Homo sapiens) (UniProt Q9UIK4). The experiment is described as follows: Selectivity interaction (LanthaScreen Eu Kinase Binding Assay) EUB0001632a DAPK2. To be noted: at 10 µM. Background: In TR-FRET formats the signal depends on donor and acceptor labels being close together.
Sequence of Death-associated protein kinase 2 (Homo sapiens) (Q9UIK4 whole entry, looked up): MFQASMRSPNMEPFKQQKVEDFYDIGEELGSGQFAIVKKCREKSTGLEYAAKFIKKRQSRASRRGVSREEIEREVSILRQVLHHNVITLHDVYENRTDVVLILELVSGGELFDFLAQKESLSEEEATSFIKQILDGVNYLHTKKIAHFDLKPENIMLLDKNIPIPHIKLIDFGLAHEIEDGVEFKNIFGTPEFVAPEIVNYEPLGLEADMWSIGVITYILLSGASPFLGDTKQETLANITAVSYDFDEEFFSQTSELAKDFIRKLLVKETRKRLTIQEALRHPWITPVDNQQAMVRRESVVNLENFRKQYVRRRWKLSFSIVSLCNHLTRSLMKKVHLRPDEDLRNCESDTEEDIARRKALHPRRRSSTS
For experiment [2], the target named is Serine/threonine-protein kinase MARK2 (Homo sapiens) (UniProt Q7KZI7). As to the kind of experiment: Selectivity interaction (Kinase panel (KiNativ target engagement assay in Jurkat cells)) EUB0001635a MARK2. It is filed as cell-based. To be noted: Selectivity number of off-targets 0.0, Selectivity number of targets 233.0, Source Knowledge https://www.sciencedirect.com/science/article/pii/S2451945619300674?via%3Dihub, at 1 µM.

The target of experiment [3] is Protein kinase C eta type (Homo sapiens) (UniProt P24723). The experiment is described as follows: Selectivity interaction (Ambit KINOMEscan and KiNATiv profiling in Jurkat cells) EUB0000090b PRKCH. It is filed as cell-based. Conditions: at 1 µM.
Sequence of Protein kinase C eta type (Homo sapiens) (P24723 whole entry): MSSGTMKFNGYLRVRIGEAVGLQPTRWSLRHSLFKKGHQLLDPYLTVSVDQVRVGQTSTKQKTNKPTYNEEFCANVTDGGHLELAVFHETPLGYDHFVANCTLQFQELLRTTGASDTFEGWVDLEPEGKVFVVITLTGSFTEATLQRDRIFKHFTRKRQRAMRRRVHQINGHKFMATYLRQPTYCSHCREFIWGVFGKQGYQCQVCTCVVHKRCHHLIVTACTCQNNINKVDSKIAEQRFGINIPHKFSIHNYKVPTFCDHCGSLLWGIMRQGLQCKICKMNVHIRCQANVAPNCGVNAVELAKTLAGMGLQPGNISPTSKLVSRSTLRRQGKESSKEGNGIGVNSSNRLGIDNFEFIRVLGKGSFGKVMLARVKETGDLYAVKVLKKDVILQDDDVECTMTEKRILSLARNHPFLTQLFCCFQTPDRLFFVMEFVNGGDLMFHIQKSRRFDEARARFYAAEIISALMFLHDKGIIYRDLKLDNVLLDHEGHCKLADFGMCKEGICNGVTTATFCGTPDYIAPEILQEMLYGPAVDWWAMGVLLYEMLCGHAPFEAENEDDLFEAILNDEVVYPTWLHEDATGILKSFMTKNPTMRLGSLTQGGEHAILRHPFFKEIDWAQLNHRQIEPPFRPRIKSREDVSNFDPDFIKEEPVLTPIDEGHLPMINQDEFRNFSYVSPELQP
Experiment [4] has as its target Activin receptor type-2A (Homo sapiens) (UniProt P27037). As to the kind of experiment: Selectivity interaction (KinomeScan (DiscoverX)) EUB0000607a ACVR2A. Conditions: at 10 µM.
Experiment [5] addresses Cyclin-dependent kinase 11B (Homo sapiens) (UniProt P21127). As to the kind of experiment: Selectivity interaction (KinomeScan (DiscoverX)) EUB0000607a CDK11B. Conditions: at 10 µM.
The target of experiment [6] is Tyrosine-protein kinase FRK (Homo sapiens) (UniProt P42685). As to the kind of experiment: Selectivity interaction (KinomeScan (DiscoverX)) EUB0000607a FRK. Conditions: at 10 µM.
The target of experiment [7] is T1, Serine/threonine-protein kinase TAO2 (Homo sapiens) (UniProt Q9UL54).
T1 sequence (whole entry): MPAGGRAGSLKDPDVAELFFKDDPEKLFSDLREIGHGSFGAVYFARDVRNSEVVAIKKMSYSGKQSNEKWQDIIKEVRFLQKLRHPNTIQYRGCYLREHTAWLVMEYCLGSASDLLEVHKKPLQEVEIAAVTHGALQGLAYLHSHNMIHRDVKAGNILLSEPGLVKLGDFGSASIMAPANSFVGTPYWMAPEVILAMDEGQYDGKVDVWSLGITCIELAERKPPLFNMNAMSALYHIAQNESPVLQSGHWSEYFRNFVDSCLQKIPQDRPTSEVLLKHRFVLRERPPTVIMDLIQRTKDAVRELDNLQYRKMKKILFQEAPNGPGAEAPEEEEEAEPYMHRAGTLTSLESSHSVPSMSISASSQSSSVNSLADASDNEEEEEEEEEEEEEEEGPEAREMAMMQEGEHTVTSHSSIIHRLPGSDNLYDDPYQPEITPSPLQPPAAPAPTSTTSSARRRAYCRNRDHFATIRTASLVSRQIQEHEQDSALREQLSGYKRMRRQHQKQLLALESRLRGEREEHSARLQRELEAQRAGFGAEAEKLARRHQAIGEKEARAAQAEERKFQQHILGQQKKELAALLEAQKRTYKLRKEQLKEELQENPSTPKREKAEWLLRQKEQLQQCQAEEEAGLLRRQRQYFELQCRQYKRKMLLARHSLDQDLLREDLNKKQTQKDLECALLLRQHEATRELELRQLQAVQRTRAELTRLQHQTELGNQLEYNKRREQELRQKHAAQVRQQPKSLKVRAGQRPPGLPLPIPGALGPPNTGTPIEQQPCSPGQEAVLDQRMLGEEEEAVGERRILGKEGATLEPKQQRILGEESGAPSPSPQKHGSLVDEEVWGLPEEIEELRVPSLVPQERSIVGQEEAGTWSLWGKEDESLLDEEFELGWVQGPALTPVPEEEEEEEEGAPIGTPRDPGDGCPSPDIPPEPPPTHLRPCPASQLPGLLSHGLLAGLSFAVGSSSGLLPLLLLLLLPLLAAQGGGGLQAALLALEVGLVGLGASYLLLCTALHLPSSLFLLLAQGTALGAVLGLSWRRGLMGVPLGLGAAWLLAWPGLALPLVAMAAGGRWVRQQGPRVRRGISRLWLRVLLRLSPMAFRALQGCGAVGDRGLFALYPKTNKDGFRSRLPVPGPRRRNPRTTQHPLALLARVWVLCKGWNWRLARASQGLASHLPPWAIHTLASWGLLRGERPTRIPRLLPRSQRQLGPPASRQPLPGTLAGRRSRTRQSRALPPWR
As to the kind of experiment: Selectivity interaction (KinomeScan (DiscoverX)) EUB0000607a TAOK2. Conditions: at 10 µM.

Experiment [8] relates to Receptor-type tyrosine-protein kinase FLT3 (Homo sapiens), P36888 [UNDEFINED MUTATION]. The experiment is described as follows: Selectivity interaction (KinomeScan (DiscoverX)) EUB0000229b FLT3. To be noted: at 1 µM.
Sequence of Receptor-type tyrosine-protein kinase FLT3 (Homo sapiens), P36888 [UNDEFINED MUTATION] (P36888 whole entry, looked up, change not shown): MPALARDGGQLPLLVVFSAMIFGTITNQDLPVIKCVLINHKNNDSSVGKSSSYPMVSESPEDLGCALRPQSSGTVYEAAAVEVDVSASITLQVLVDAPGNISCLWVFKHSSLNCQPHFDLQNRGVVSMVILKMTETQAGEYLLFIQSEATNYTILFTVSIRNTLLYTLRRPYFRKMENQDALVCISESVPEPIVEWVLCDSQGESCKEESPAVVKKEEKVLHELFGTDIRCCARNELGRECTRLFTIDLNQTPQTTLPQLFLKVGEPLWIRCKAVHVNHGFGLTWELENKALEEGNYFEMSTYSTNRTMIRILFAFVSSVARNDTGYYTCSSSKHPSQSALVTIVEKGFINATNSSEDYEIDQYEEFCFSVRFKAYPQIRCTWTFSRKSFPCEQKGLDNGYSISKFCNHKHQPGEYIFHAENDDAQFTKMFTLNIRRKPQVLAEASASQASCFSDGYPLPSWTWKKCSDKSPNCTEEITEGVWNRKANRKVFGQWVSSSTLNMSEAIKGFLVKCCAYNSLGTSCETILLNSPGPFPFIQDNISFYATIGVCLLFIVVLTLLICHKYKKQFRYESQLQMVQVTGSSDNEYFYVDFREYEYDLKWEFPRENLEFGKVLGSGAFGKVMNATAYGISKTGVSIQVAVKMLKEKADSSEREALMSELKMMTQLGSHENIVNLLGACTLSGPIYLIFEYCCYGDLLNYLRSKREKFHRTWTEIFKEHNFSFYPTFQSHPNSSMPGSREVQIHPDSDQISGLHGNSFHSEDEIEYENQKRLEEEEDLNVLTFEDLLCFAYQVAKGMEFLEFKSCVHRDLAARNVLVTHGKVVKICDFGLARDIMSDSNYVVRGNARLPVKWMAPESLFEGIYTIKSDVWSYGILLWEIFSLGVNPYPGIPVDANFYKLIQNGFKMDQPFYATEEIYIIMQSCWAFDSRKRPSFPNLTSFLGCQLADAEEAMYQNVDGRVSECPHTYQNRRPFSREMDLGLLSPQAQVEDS
Experiment [9] has as its target Ribosomal protein S6 kinase alpha-3 (Homo sapiens, UniProt P51812). As to the kind of experiment: Selectivity interaction (KinomeScan (DiscoverX)) EUB0000229b RPS6KA3. To be noted: at 10 µM.
For experiment [10], the system named is Leucine-rich repeat serine/threonine-protein kinase 2 (Homo sapiens), Q5S007 [G2019S]. As to the kind of experiment: (§1) Selectivity interaction (KinomeScan (DiscoverX)) EUB0001079a LRRK2. Conditions: at 1 µM.
For experiment [11], the target named is Leucine-rich repeat serine/threonine-protein kinase 2 (Homo sapiens, UniProt Q5S007). Described as §1. Conditions: at 1 µM.
For experiment [12], the target named is Dual specificity mitogen-activated protein kinase kinase 1 (Homo sapiens, UniProt Q02750). The experiment is described as follows: Selectivity interaction (KinomeScan (DiscoverX)) EUB0001079a MAP2K1. To be noted: at 1 µM.
In experiment [13] the target is Tyrosine-protein kinase ABL1 (Homo sapiens, UniProt P00519). The experiment is described as follows: Selectivity interaction (Kinase panel (Invitrogen)) EUB0000639a ABL1. Conditions: at 200 nM.
The target in experiment [14] is Cyclin-dependent kinase 7 (Homo sapiens, UniProt P50613). The experiment is described as follows: Selectivity interaction (ActivX KiNativ screen (kinase selectivity in THP-1 cell lysates)) EUB0000639a CDK7. Conditions: lysate, at 0.01 µM. The class given is subcellular.
Sequence of Cyclin-dependent kinase 7 (P50613 whole entry): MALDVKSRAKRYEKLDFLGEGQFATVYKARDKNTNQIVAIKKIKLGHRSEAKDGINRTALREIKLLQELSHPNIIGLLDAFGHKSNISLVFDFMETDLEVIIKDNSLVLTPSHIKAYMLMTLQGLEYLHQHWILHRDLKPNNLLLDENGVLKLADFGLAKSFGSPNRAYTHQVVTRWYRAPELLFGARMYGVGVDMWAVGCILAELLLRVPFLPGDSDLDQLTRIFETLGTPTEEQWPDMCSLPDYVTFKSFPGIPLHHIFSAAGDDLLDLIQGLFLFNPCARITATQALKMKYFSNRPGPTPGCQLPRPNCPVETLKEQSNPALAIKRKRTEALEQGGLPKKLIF
In experiment [15] the target is Serine/threonine-protein kinase pim-1 (Homo sapiens, UniProt P11309). Conditions: at 10 µM.
The target of a further experiment is D(3) dopamine receptor (Homo sapiens, UniProt P35462). The experiment is described as follows: Selectivity interaction (Eurofins CEREP Diversity Profile (receptors and ion channels)) EUB0000279b DRD3. Conditions: at 10 µM.
Experiment [16] deals with Bromodomain testis-specific protein (Homo sapiens) (UniProt Q58F21). The experiment is described as follows: Selectivity interaction (Bromodomain panel (DSF asssay)) EUB0000270b BRDT.
The target of experiment [17] is Protein arginine N-methyltransferase 1 (Homo sapiens, UniProt Q99873). As to the kind of experiment: Selectivity interaction (Transferase panel (protein, RNA, and DNA methyltransferases. and EP300 (acetyltransferase))) EUB0000270b PRMT1.
Sequence of Protein arginine N-methyltransferase 1 (Q99873 whole entry, looked up): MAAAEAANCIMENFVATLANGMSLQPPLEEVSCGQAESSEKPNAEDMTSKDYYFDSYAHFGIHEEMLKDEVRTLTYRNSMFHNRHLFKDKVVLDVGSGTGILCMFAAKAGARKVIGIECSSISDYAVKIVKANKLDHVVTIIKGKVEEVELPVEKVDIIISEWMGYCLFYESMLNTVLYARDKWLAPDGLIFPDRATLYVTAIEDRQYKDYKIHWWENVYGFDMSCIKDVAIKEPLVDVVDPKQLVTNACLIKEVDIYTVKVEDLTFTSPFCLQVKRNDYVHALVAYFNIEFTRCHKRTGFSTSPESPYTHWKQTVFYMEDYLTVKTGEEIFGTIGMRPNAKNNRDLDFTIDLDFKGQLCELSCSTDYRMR
The target in the next experiment is SRSF protein kinase 1 (Homo sapiens, UniProt Q96SB4). As to the kind of experiment: Selectivity interaction (KinomeScan (DiscoverX)) EUB0000092b SRPK1. Conditions: at 10 µM.
Another experiment has as its target Insulin receptor (Homo sapiens, UniProt P06213). The experiment is described as follows: Selectivity interaction (KinomeScan (DiscoverX)) EUB0000045b INSR.
The target in experiment [18] is Calcium/calmodulin-dependent protein kinase type 1G (Homo sapiens) (UniProt Q96NX5). The experiment is described as follows: Selectivity interaction (KinomeScan (DiscoverX)) EUB0000618a CAMK1G. Conditions: at 10 µM.
Experiment [19] concerns the target [Pyruvate dehydrogenase (acetyl-transferring)] kinase isozyme 1, mitochondrial (Homo sapiens, UniProt Q15118). As to the kind of experiment: Selectivity interaction (Upstate Kinase Profiler service (Millipore)) EUB0000056c PDK1. Conditions: at 1 µM.

Sequence of Insulin receptor (P06213 28-758 limits assumed): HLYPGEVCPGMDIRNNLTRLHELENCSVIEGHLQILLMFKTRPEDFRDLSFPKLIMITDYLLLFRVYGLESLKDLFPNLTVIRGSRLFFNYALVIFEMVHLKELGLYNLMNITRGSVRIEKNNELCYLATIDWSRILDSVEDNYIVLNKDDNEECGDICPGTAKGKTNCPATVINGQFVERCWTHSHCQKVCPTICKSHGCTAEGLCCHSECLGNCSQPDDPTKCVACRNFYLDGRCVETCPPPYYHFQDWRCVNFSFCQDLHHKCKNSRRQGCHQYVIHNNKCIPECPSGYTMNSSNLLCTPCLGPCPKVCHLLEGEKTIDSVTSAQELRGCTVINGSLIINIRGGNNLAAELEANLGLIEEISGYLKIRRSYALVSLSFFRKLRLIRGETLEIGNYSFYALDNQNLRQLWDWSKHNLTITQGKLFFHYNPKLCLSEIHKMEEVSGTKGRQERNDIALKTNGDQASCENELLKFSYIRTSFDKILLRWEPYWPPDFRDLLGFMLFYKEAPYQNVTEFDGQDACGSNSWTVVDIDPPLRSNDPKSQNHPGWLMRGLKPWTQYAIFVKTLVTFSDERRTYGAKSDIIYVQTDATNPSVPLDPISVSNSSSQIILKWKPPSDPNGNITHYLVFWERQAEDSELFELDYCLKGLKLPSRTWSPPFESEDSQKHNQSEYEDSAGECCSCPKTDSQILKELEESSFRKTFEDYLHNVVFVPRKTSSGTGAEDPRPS
Sequence of Insulin receptor (P06213 763-1382 limits assumed): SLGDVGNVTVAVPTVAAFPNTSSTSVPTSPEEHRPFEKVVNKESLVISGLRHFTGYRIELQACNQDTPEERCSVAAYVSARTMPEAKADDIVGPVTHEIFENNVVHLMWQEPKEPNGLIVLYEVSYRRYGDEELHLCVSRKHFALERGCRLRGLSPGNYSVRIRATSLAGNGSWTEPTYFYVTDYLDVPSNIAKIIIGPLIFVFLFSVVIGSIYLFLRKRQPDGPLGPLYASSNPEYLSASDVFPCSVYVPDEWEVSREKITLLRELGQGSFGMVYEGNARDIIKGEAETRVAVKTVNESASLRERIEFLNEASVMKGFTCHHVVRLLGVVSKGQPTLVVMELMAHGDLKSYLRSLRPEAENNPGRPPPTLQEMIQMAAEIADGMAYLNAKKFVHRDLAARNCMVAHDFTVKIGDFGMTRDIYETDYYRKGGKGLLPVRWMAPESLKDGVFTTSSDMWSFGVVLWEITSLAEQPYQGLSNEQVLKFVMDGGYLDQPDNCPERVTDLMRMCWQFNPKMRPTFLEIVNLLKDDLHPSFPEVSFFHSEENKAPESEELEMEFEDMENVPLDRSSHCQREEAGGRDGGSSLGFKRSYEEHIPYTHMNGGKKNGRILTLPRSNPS
Sequence of Cyclin-dependent kinase 11B (Homo sapiens) (P21127 whole entry): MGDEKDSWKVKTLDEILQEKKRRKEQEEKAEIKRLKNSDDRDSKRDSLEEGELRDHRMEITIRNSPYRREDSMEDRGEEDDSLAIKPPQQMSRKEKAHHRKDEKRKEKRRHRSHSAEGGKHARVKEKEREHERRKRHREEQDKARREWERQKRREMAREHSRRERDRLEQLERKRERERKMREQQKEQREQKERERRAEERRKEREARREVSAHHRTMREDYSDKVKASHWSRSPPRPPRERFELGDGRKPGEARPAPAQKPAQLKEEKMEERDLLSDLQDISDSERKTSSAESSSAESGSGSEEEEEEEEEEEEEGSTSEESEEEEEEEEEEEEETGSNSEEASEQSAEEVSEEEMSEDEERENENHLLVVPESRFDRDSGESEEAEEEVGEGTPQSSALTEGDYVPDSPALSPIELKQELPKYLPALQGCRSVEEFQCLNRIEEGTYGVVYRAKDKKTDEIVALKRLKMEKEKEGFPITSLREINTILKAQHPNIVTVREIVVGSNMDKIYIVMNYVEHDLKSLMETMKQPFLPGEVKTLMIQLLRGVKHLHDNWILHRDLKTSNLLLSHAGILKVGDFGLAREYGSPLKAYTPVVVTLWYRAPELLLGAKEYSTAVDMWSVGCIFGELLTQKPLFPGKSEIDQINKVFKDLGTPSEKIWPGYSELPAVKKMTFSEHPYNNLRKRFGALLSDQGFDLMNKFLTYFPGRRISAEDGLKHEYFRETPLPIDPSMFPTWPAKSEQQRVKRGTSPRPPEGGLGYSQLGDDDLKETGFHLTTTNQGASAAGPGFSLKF

On to `Cn1cc(-n2cnc3c(NCc4nc5cc(Cl)c(Cl)cc5[nH]4)nc(N4CCOCC4)nc32)cn1`, for which the % of inhibition in [1] was -5.23%.

With `C=CC(=O)Nc1ccc(C(=O)Nc2[nH]nc3c2CN(C(=O)N[C@H](CN(C)C)c2ccccc2)C3(C)C)cc1`, the % of engagement in experiment [2] amounted to 6.7%.

With `CN(C)C/C=C/C(=O)Nc1ccc(C(=O)N2CCCC(Nc3ncc(Cl)c(-c4c[nH]c5ccccc45)n3)C2)cc1` (centres undefined), the % of control in experiment [3] worked out at 91%.

For `CNC(=O)Nc1ccc(-c2nc(N3CC4CCC(C3)O4)c3cnn(C4CCC5(CC4)OCCO5)c3n2)cc1`, the % of control in [4] was found to be 78%; in [5], 100%; in experiment [6], 68%; in experiment [7], 100%.

On to `COc1cc(N(C)c2ccnc3ccc(C(F)(F)F)cc23)cc(OC)c1OC`, for which the % binding in [8] was found to be 100%; in [9], 95%.

As for `Nc1cnc(N2CCc3cc(S(=O)(=O)Nc4c(F)cc(Cl)cc4F)cc(N4CCCC4=O)c32)nc1` [TP-020n], the % of control was 81% in [10], 97% in [11] and 100% in experiment [12].

With `CC[C@@H]1[C@H](F)C(=O)N[C@@H]1COc1nccc2cc(C(N)=O)c(OC)cc12` [ZIMLOVISERTIB], the % of inhibition in experiment [13] is -8%; in [14], -3%.

In [15], `CCN(CC)CCCCNc1ncc2cc(-c3cc(OC)cc(OC)c3)c(NC(=O)NC(C)(C)C)nc2n1` came in with a % of control of 100%.

Consider `CC(=O)c1cc(-c2ccccc2OCC2CC2)c2ncccn12`, for which the % of control at D(3) dopamine receptor was 81%.

`Cc1cc(CN)cc(C)c1-c1ncn(C)c1-c1cncn1C` returned a dTM in [16] of -1.97 K. For the same molecule, the % activity is more than 90% in experiment [17] (at 1 µM) and more than 80% in [17] (at 10 µM).

In the case of `CCC(=O)N1CCN(c2ccc(-n3c(=O)ccc4cnc5ccc(-c6cnc7ccccc7c6)cc5c43)cc2C(F)(F)F)CC1`, the % of control on SRSF protein kinase 1 was found to be 100%.

In the case of `C=CC(=O)Nc1cc(-n2c(=O)ccc3cnc4ccc(-c5ccc(NS(C)(=O)=O)cc5)cc4c32)ccc1C`, the % of control amounted to 93% on Insulin receptor (at 1 µM) and 100% on Insulin receptor (at 10 µM).

As to `O[C@H]1CC[C@H](Nc2ncc3nc(Nc4c(F)cc(F)cc4F)n([C@H]4CCOC4)c3n2)CC1`, the % of control in experiment [18] stood at 100%.

In the case of `Cc1ccc(-c2ccc3c(ccc4sc5c(c43)NC[C@@H](C)NC5=O)n2)cn1`, in experiment [19], the % of inhibition amounted to 0%.
